# Read-outs that look alike come from different tables or passages of the source.
# Columns and labels:
# [1] = molecular target: T1, 5-HT1A receptor (Mus musculus, UniProt Q64264); test: [35S]GTPγS binding in response to 5-HT1A receptor stimulation; assay type: biochemical, mice; conditions: 50 μM agonist
# T1 construct: Fresh cryostat sections (12 μm) from wild-type, p11 KO and p11 transgenic mice; from tissue; host or cells: mouse brain cryostat sections
# T1 sequence (Q64264 1-421): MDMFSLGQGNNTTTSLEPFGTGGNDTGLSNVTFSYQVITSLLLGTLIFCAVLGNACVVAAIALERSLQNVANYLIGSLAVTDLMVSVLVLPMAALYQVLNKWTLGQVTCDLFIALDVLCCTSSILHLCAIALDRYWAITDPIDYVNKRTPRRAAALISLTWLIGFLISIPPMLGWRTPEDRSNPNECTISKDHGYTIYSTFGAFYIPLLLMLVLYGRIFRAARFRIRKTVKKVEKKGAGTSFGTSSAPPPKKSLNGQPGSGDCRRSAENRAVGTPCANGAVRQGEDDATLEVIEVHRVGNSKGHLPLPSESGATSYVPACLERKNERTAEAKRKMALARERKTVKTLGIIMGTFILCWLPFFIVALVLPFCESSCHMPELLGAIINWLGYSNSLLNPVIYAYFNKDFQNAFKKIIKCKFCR
# Description: (§1) Fresh cryostat sections (12 μm) from wild-type, p11 KO and p11 transgenic mice are preincubated for 30 min in Tris-HCl 50 mM (pH 7.4) supplemented with 100 mM NaCl, […] 3 mM MgCl2, 0.2 mM EGTA, 2 mM GDP and 1 U/ml adenosine deaminase to remove endogenous adenosine. The sections are thereafter incubated for two hours at 25° C. in the same solution containing 40 pM [^35S]GTP S, with (stimulation condition) or without (basal condition) 50 μM of the 5-HT1A receptor agonist, 8-OH-DPAT, or the 5-HT1B receptor agonist, anpirtoline. Non-specific labeling (background) is determined on autoradiographs from adjacent sections incubated with 10 μM of unlabeled GTP S. Sections are rinsed twice (3 min each) in 50 mM Tris-HCl buffer, once (30 sec) in distilled water to remove the buffer salts, and air-dried. The autoradiographs are obtained by 2-4 days exposure on Biomax MR film. Optical density measurements are obtained in several brain regions with the NIH Image 1.63 image analysis system.
# [2] = system: p11 mRNA; conditions: mice, 14 day treatment, once daily i.p., killed 1 hour after last injection
# Description: For some experiments, brains from p11 KO mice and their wild-type counterparts are used. […] Animals are killed 1 hour after the last injection.
# In situ hybridization probes are made by PCR amplification of nucleotides 1159-1420 of the coding sequence of the rat 5-HT1B receptor gene, nucleotides 1-293 of the coding sequence of the mouse or human p11 genes and nucleotides 1-287 of the coding sequence of the rat p11 gene, respectively. The different PCR fragments are subcloned into the pCRII-TOPO vector. With the exception of the studies on human tissue, 12-μm-thick cryostat sections are made for all studies. Sections are hybridized with [□^−35S]UTP-labeled riboprobe repared by in vitro transcription from cDNA corresponding to the rat 5-HT1B receptor gene or mouse, rat or human p11 gene as previously described (S5). After hybridization, the sections are exposed to Biomax MR film for 7 to 24 days and analyzed using the NIH Image 1.63 software. Unless indicated, analyses are made in the prelimbic/anterior cingulate cortex. Some sections are dipped into Ilford K5 emulsion for cellular analysis. After 8 weeks, the sections are developed, Nissl-stained and mounted.
# [3] = system: AMPA receptors; test: Electrophysiology, fEPSP/PS in nucleus accumbens slices, CNQX; design: species or system mice; conditions: 15 min after CNQX
# Description: (§2) Male p11 KO and wild-type mice (4-7 weeks old) are decapitated under fluorothane anesthesia. Their brains are rapidly removed and coronal brain slices (400 μm thick), containing the nucleus accumbens, are prepared with a microslicer. Slices are incubated, for at least 1 h, at 32° C. in oxygenated (95% O2+5% CO2) artificial cerebrospinal fluid (aCSF) containing (in mM): 126 NaCl, 2.5 KCl, 1.2 NaH2PO4, 1.3 MgCl2, 2.4 CaCl2, 10 glucose and 26 NaHCO3, pH 7.4. Slices are transferred to a recording chamber mounted on an upright microscope and are continuously perfused with oxygenated aCSF at 28° C. Extracellular field potentials are recorded using a glass micropipette filled with aCSF positioned on the slice surface in the nucleus accumbens. Signals are amplified 500 times via an Axopatch 200B amplifier acquired at 10 kHz, filtered at 2 kHz and recorded on a Computer using acquisition and pClamp9 data analysis software. Synaptic responses are evoked with a concentric bipolar stimulating electrode placed near the recording electrode on the surface of the slice. […] Single stimuli (0.1 ms duration) are applied every 15 sec at an intensity yielding 50-70% maximal response as assessed by a stimulus/response curve established for each slice examined by measuring the amplitude of the field potential evoked by increasing stimulus intensities. […] Numerical values are expressed as means […]SEM. […]
# [4] = molecular target: T2, 5-HT1B receptor (Mus musculus, UniProt P28334); test: Quantitative receptor autoradiography, [125I]cyanopindolol binding and serotonin displacement; design: Cryostat sections (12 μm thick) are made from p11 KO and wild-type mice; from tissue; host or cells: mouse brain cryostat sections (globus pallidus, substantia nigra); wild-type, p11 KO and p11 transgenic mice; species or system mice
# Description: Cryostat sections (12 μm thick) are made from p11 KO and wild-type mice. 5-HT1B receptors are detected by incubating the sections in 170 mM Tris/150 mM NaCl pH 7.4 (25° C.) containing the antagonist [^125I]cyanopindolol (0.3, 1, 3, 10, 30, 100 pM; 2200 Ci/mmol), 100 nM 8-OH-DPAT as a 5-HT1A blocker, and 30 μM isoproterenol, as β-adrenergic receptor blocker, for two hours (S9). Non-specific binding is determined by measurements in the presence of 100 μM serotonin. In displacement experiments, increasing concentrations of serotonin (0, 0.3, 1, 3, 10, 30, 100, 300, 1000, 10000 nM) are incubated with 10 pM [^125I]cyanopindolol as described above. […] At the end of all autoradiographic experiments, sections are rinsed 2×5 min in their corresponding cold binding buffers, dipped in distilled water at 4° C. and dried under cold air. The sections are apposed to Biomax MR films for 3-5 days ([^125I]cyanopindolol) or 4-10 weeks ([^3H]GR125743, [^3H]8-OHDPAT, ^3H]SCH23390, [^3H]raclopride) together with ^[125I] or [^3H] microscales. Optical density measurements are obtained in several brain regions with the NIH Image 1.63 image analysis system. Specific binding is calculated by digital subtraction of nonspecific labeling from total binding. Standard curves generated from [^3H] or [^125I] microscales are used to convert optical densities into femtomoles per milligram of protein. Data obtained from saturation and displacement experiments are analyzed using non-linear regression equations.
# [5] = system: immobility; test: Tail suspension test; assay type: in vivo; conditions: p11 KO mice compared with wild-type mice after acute treatment, 15 minutes postinjection
# Description: The tail suspension test, a model of antidepressant-like activity, is carried out as described (S11) and is a modified version of that validated for C57B16 (S12) and NMRI mice (S13). Mice are individually suspended by the tail to a horizontal bar (distance from floor is 35 cm) using adhesive tape (distance from tip of tail is 2 cm). […] A 6-min test session is videotaped and scored by an observer who is unaware of the genotype. The parameter recorded is the number of seconds spent immobile. In experiments with anpirtoline (5 mg/kg) and imipramine (10 mg/kg), animals are tested 15 minutes postinjection.
# [6] = system: phospho-Thr202/Tyr204-ERK1/2; test: Western blotting of phosphorylated ERK1/2 in primary cortical cultures; assay type: cell-based; conditions: primary cortical cultures from p11 KO mice, 10 μM, 15 minutes
# Description: Cortices are removed from E18 mice generated from WT×WT or p11KO×p11KO breedings, trypsinized (0.25%), dissociated by trituration and plated onto poly-L-lysine (1 mg/ml) coated six-well plates. The cultures (500,000 cells/ml) are grown in medium containing DMEM with 5% fetal bovine serum, 4 mM L-glutamine, B-27 nutrient supplement, penicillin (5 U/ml), and streptomycin (5 μg/ml). After two weeks, the cultures are treated with vehicle, serotonin (10 μM) or anpirtoline (10 μM) for 15 minutes. At the end of the treatment, the drug-containing medium is removed, the wells rinsed in ice-cold PBS, the neurons removed by a cell scraper and frozen in liquid nitrogen. Frozen cell samples are sonicated in 1% SDS and boiled for 10 min. Small aliquots of the homogenate are retained for protein determination by the bicinchoninic acid protein assay method. Equal amounts of protein are processed by using 10% acrylamide gels, as described (S10). Immunoblotting is carried out with a phosphorylation-state-specific antibody against phospho-Thr202/Tyr204-ERK1/2 or an antibody that is not phosphorylation-state-specific against total ERK1/2. Antibody binding is detected by enhanced chemiluminescence and quantified by densitometry, using National Institutes of Health IMAGE 1.63 software. The level of the phosphorylated form of ERK1/2 is normalized to its total level. All data are presented as normalized levels.
# [7] = system: phospho-Ser9-synapsin I; test: Western blotting of phosphorylated synapsin I in brain slices; assay type: cell-based; conditions: striatal slices from p11 KO mice, 50 μM, 2 min
# Description: Slices (300 μm) from the striatum are prepared from wild-type and p11 KO mice as described (S10). The slices are preincubated in Krebs buffer (118 mM NaCl/4.7 mM KCl/1.5 mM […]/1.2 mM KH2PO4/25 mM NaHCO3/11.7 mM glucose/1.3 mM CaCl2) at 30° C. under constant oxygenation (95% O2/5% CO2) for 60 min, with a change of buffer after […]. Slices are treated with vehicle or anpirtoline (50 μM) for 2 min. After drug treatment, the buffer is removed, the slices are rapidly frozen on dry ice, sonicated in 1% SDS and boiled for 10 min. Small aliquots of the homogenate are retained for protein determination by the bicinchoninic acid protein assay method. Equal amounts of protein are processed by using 10% acrylamide gels. Immunoblotting is carried out with a phosphorylation-state-specific rabbit polyclonal antibody against phospho-Ser9-synapsin I, a site that is phosphorylated by PKA and CamKII, or a rabbit polyclonal synapsin antibody that is not phosphorylation-state-specific. Antibody binding is detected by enhanced chemiluminescence and quantified by densitometry, using National Institutes of Health IMAGE 1.63 software. The level of the phosphorylated form of synapsin is normalized to its total level. All data are presented as normalized levels.
# [8] = molecular target: T2, 5-HT1B receptor; test: [35S]GTPγS binding in response to 5-HT1B receptor stimulation; assay type: biochemical; design: Cryostat sections (12 μm thick) are made from p11 KO and wild-type mice; from tissue; host or cells: mouse brain cryostat sections (globus pallidus, substantia nigra); wild-type, p11 KO and p11 transgenic mice; conditions: p11 KO mice, 50 μM agonist
# Description: as §1
# [9] = system: thigmotaxis; test: Open-field analysis (thigmotaxis); assay type: in vivo; conditions: wild-type mice treated long-term with imipramine; anpirtoline 5 mg/kg i.p., 15 min postinjection
# Description: Horizontal activities are measured for 30 minutes (results are analyzed every 5 min period) during daytime in a fully computerized, multicage, red and infrared-sensitive motion detection system. The peripheral activity values are divided […] by the total horizontal activity values to determine thigmotaxis. In experiments with anpirtoline (5 mg/kg, i.p.) animals are tested 15 min postinjection. Some anpirtolinetreated mice had received daily injections with imipramine (10 mg/kg, i.p.) for 4 weeks until the day before the experiment.
# [10] = system: p11; test: p11 expression in PBMC of monkeys receiving fluoxetine; assay type: in vivo
# [11] = molecular target: T3, 5-HT1B receptor (Homo sapiens, UniProt P28222); test: cAMP measurements in COS 7 cells; assay type: cell-based
# T3 construct: V5 (C); expressed in transfected cells; host or cells: COS 7
# Description: COS 7 cells grown in DMEM medium are transfected with 5-HT1B receptors and/or p11. Thirty six hours later the cells are pretreated with theophylline (5 mM) and pargyline (10 μM) for 15 min. Vehicle or forskolin (10 μM) with or without serotonin (10 μM), is then added for another 15 minutes. At the end of the treatment, the drug-containing medium is removed, the wells rinsed in PBS and the cells harvested. cAMP formation is quantitated by a direct cAMP enzyme immunoassay kit according to the manufacturers instructions.
# [12] = molecular target: T2, 5-HT1B receptor; test: Electrophysiology, fEPSP/PS in nucleus accumbens slices, serotonin; conditions: slices from WT mice; serotonin 50 μM in the presence of 10 μM fluoxetine
# Description: as §2
# T2 sequence (P28334 whole entry): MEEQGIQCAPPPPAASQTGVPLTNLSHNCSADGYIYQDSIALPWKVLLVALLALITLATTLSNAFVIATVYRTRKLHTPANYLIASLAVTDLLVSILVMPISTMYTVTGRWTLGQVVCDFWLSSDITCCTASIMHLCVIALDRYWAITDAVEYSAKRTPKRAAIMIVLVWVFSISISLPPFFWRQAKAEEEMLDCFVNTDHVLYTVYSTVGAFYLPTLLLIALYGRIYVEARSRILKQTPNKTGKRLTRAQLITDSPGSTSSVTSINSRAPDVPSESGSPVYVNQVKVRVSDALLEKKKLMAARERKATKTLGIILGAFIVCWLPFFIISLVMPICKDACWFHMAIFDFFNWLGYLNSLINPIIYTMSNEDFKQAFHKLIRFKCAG
# T3 sequence (P28222 whole entry): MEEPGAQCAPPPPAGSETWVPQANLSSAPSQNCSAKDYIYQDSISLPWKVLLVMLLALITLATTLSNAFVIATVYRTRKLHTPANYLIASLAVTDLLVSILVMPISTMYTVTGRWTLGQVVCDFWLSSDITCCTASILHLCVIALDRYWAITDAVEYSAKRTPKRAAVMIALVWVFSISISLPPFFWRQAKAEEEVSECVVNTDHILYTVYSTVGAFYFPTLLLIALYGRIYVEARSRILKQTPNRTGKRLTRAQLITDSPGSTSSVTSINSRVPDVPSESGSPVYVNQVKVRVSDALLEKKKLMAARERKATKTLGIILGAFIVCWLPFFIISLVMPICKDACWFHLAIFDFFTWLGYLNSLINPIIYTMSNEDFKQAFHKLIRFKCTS
smiles,measurement,setting,value
"CCCN(CCC)C1CCc2cccc(O)c2C1 (racemic) [8-OH-DPAT, (+/−)-8-hydroxy-2-(di-n-propylamino)tetralin]",[35S]GTP-S binding,[1]; p11 KO mice,5.0±2.0 optical density units
same,[35S]GTP-S binding,[1]; wild-type mice,6.0±2.1 optical density units
N[C@@H]1C[C@H]1c1ccccc1 (racemic) [tranylcypromine],p11 mRNA in the forebrain,[2],upregulation of p11 mRNA
"N#Cc1cc2c(cc1[N+](=O)[O-])=NC(=O)C(=O)N=2 [CNQX, 6-cyano-7-nitroquinoxaline-2,3-dione]",f EPSP/population spike (PS) reduction compared with baseline,[3]; p11 KO mice,81%
same,f EPSP/population spike (PS) reduction compared with baseline,[3]; wild-type mice,77%
CC(C)(C)NCC(O)COc1cccc2[nH]c(C#N)c([125I])c12 (centres unmarked) [[^125I]iodocyanopindolol],binding in substantia nigra pars reticulata,[4]; p11 KO mice,77.3±5.8 fmol/mg protein
same,binding in substantia nigra pars reticulata,[4]; wild-type mice,98.8±6.2 fmol/mg protein
Clc1cccc(SC2CCNCC2)n1 [anpirtoline],immobility in the tail suspension test,[5],increased immobility
same,down-regulation of phospho-Thr202/Tyr204-ERK1/2 levels,[6],loss of ability
same,decrease of phospho-Ser9-synapsin I,[7],loss of ability
same,ability to increase [35S]GTP-S binding in globus pallidus,[8],reduced ability
same,thigmotaxis,[9],significant reduction in thigmotaxis
CNCCC(Oc1ccc(C(F)(F)F)cc1)c1ccccc1 (centres unmarked) [fluoxetine],increase in p11 expression in peripheral blood mononuclear cells (PBMC),[10],more than twofold
O=C(CCCN1CCC(O)(c2ccc(Cl)cc2)CC1)c1ccc(F)cc1 [haloperidol],p11 mRNA in the forebrain,[2],not
CN(C)CCCN1c2ccccc2CCc2ccccc21 [imipramine],immobility in the tail suspension test,[5],increased immobility
same,p11 mRNA in the forebrain,[2],upregulation of p11 mRNA
Cc1nc2n(c(=O)c1CCN1CCC(c3noc4cc(F)ccc34)CC1)CCCC2 [risperidone],p11 mRNA in the forebrain,[2],not
"NCCc1c[nH]c2ccc(O)cc12 [serotonin, 5-hydroxy-tryptamine]",EC50,[4],52 nM
same,EC50,"[4]; median effective concentration (EC50) to displace bound [125I]iodocyanopindolol, wild-type mice, brain sections",57 nM
same,ability to counteract forskolin-induced cAMP formation,"[11]; COS-7 cells transfected with the 5-HT1B receptor, in the presence of cotransfected p11, serotonin (10 µM)",increased
same,cAMP formation in untransfected COS 7 cells,"[11]; control experiments, untransfected cells",does not alter cAMP formation
same,down-regulation of phospho-Thr202/Tyr204-ERK1/2 levels,[6],loss of ability
same,amplitude of the fEPSP/PS,[12],depresses the amplitude
